The source of these data is patent US20240350402A1, “TOPICAL DRUG TREATMENT TO PREVENT OR REDUCE CORNEAL SCARRING” (The Cleveland Clinic Foundation, priority 2021, published 2024).

Test [1] has as its system myofibroblast marker α-SMA. In words: -9D PRK model: IHC stromal α-SMA pixels (ImageJ). Conditions: topical 0.8 mg/ml losartan six times a day, one month. Type of test: in vivo, rabbit. As to the method:
(§1) Animal procedures were approved by the Institutional Animal Care and Use Committee at the Cleveland Clinic Foundation and animals were treated in accordance with the tenets of the Association for Research in Vision and Ophthalmology Statement for the Use of Animals in Ophthalmic and Vision Research. Twelve female 12- to 15-week-old New Zealand white rabbits weighing 2.5 to 3 kg each were included. Starting 24 hours prior to surgery and continuing 5 days after PRK, all rabbits received 60 mL children's liquid acetaminophen (Johnson & Johnson, Ft. Washington, PA, USA) per 1 L of drinking water. One eye of each rabbit was randomly selected to have −9.0 D (on myopia scale) PRK and received 2 drops of topical 1% proparacaine hydrochloride (Alcon, Fort Worth, TX, USA) prior to the surgery. […]
All images were converted to 300 DPI 900 pixel width×672 pixel height images with Photoshop 22.1.1 (Adobe, San Jose, CA). The mean pixels of stromal α-SMA or stromal collagen type IV were determined in a 900-pixel wide×235-pixel high rectangle (for either α-SMA or collagen type IV quantitation) with ImageJ in three sections for each cornea using the image panels showing only the color of interest. […]

In test [2] the test system is rabbit corneas after alkali burn injury. The experiment in a line: Alkali burn model: slit lamp opacity area and intensity (ImageJ). Format: in vivo. Conditions: alkali burn 1N NaOH; topical six times per day, one month; 0.8 mg/ml losartan, 1% prednisolone acetate. The protocol: All animal treatments and care were approved by the Institutional Animal Care and Use Committee (IACUC) at the Cleveland Clinic Foundation (Cleveland, OH, USA) and the Animal Care and Use Review Office of the Department of the Army (Fort Detrick, MD). All rabbits were treated in accordance with the tenets of the ARVO Statement for the Use of Animals in Ophthalmic and Vision Research. Sixteen 10- to 15-week-old female New Zealand White rabbits weighing 2.5 to 3.0 kg each were included in this example. […]
At one month after sodium hydroxide exposure and treatments, with the rabbits under ketamine-xylazine general anesthesia, the eyes were dilated with two drops of 1% tropicamide (Akom Co., Lake Forest, IL) for thirty minutes. […] For each study eye, the total area of opacity was determined by outlining the opacity with the freehand selection tool using ImageJ 1.53a analysis software calibrated to mm^2. The “raw internal density” in pixels for the opacified area in each cornea was also determined using ImageJ. […]

Test [3] concerns rabbit corneas after -9D PRK. The experiment in a line: -9D PRK model: slit lamp central opacity (ImageJ). Particulars: topical 0.8 mg/ml losartan six times a day, one month. Format: in vivo. The protocol:
as §1
At 1 month after PRK and treatment, each rabbit was placed under ketamine-xylazine general anesthesia and the eyes were dilated with two drops of 1% tropicamide (Akorn Co., Lake Forest, IL, USA) for 30 minutes. […] For each study cornea, the mean opacity in pixels in the central 3.5 mm of the PRK ablated zone was determined by using ImageJ 1.53a analysis software (National Institutes of Health, Bethesda, MD, USA). […]

On to `CCCCc1nc(Cl)c(CO)n1Cc1ccc(-c2ccccc2-c2nn[nH]n2)cc1` [losartan], for which the “total pixels of α-SMA staining within the analyzed rectangle (mean±SEM)” value in test [1] stood at 120±60 pixels. Moreover, the “total opacity intensity in pixels (ImageJ) vs BSS vehicle group” value in test [2] is listed as “significantly different”. In addition, in test [3], the “mean pixels of opacity within the analyzed 3.5 mm diameter area (mean±SEM)” value amounted to 77±3 pixels.
